Data from the supplement of paper PMC6461962.

Tests used:
[1] = tested on: Rhodanobacter sp. FW104-10B01
Method in brief: (§1)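 Cells were washed and added to 384-well plates at a final OD600 of 0.02 in 80 µL, with serial dilutions of inorganic ion salts or equimolar nitrilotriacetic acid complexes. Aerobic plates were shaken at 700 rpm at 30 °C, while anaerobic plates were not shaken, and OD600 was read at 24 h, or at 48 h for R2A strain comparisons. Readings were scaled between water controls and growth-blocking antibiotic controls, and wells with precipitate were excluded. The IC50 was obtained by fitting curves from at least two biological replicates with the drc R package.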

[2] = tested on: Pseudomonas fluorescens FW300-N2E2
Method in brief: as §1

[3] = medium / electron acceptor: 10B01 R2A/aerobic
[4] = medium / electron acceptor: 10B01 R2A/nitrate
[5] = medium / electron acceptor: N2E2 Glucose/aerobic
[6] = medium / electron acceptor: N2E2 Glucose/aerobic 0.25xMinerals
[7] = medium / electron acceptor: N2E2 Glucose/aerobic (2)
[8] = medium / electron acceptor: N2E2 KB/aerobic
[9] = medium / electron acceptor: N2E2 LB/aerobic
[10] = medium / electron acceptor: N2E2 LB/aerobic (2)
[11] = medium / electron acceptor: N2E2 LB/nitrate
[12] = medium / electron acceptor: N2E2 Lactate/aerobic
[13] = medium / electron acceptor: N2E2 R2A/aerobic

Structure (SMILES)	IC50 growth inhibition [1, 3] [mM]	IC50 growth inhibition [1, 4] [mM]	IC50 growth inhibition [2, 5] [mM]	IC50 growth inhibition [2, 6] [mM]	IC50 growth inhibition [2, 7] [mM]	IC50 growth inhibition [2, 8] [mM]	IC50 growth inhibition [2, 9] [mM]	IC50 growth inhibition [2, 10] [mM]	IC50 growth inhibition [2, 11] [mM]	IC50 growth inhibition [2, 12] [mM]	IC50 growth inhibition [2, 13] [mM]
O.O.O.O.O.O.[Al+3].[Cl-].[Cl-].[Cl-] [Aluminum chloride hydrate]	3.54	> 5	> 5	0.409	> 5	> 5	> 5	> 5	4.64	> 5	0.227
[O-][I+3]([O-])([O-])O [Sodium periodate]	0.101	0.0825	5.52	2.35	1.56	0.326	0.813	2.35	0.146	27.4	0.772
OB1OB2OB(O)OB(O1)O2 [sodium tetraborate decahydrate]	> 5	> 5	> 5	> 5	> 5	> 5	> 5	> 5	3.16	> 5	> 5
O=NO [Sodium nitrite]	> 50	> 50	17.3	6.63	3.89	15.3	22.8	41.6	14.8	23	8.81
O.O.[Na+].[Na+].[O]=[W](=[O])([O-])[O-] [Sodium tungstate dihydrate]	> 500	> 500	< 0.244	< 0.244	3.31	1.17	0.539	20.5	21.3	< 0.244	237
[O-][Cl+]O [Sodium Chlorite]	> 5	> 5	< 0.00244	< 0.00244	< 0.00244	< 0.00244	0.0105	< 0.00244	0.00287	< 0.00244	0.00662
[Cl-].[Cs+] [Cesium chloride]	0.452	3.79	< 0.244	< 0.244	< 0.244	0.791	5.91	2.14	16.6	< 0.244	1.2
[Cl-].[Na+] [Sodium Chloride]	708	545	699	708	603	660	708	718	622	707	671
O.O=[Te]([O-])[O-].[K+].[K+] [Potassium tellurite hydrate]	0.01	0.01	< 0.00244	< 0.00244	< 0.00244	< 0.00244	< 0.00244	< 0.00244	0.01	< 0.00244	< 0.00244
O.O.O.O.O=S(=O)([O-])[O-].[Be+2] [beryllium sulfate tetrahydrate]	> 500	> 500	1.55	1.55	1.55	109	1.61	< 0.244	91.9	4.8	> 500
O.[Cl-].[Li+] [Lithium chloride hydrate]	15.6	98.7	349	> 500	33.9	325	354	354	263	321	176
[Cl][Pt]([Cl])([Cl])[Cl] [platinum (IV) chloride]	0.123	0.0935	0.0175	0.0175	0.0175	0.0352	0.172	0.0661	0.0329	0.418	0.0861
[I-].[Na+] [sodium iodide]	354	319	59.4	> 500	107	304	330	354	125	124	237
[K+].[K+].[O]=[Cr](=[O])([O-])[O-] [Potassium chromate]	0.123	< 0.244	< 0.244	< 0.244	< 0.244	< 0.244	< 0.244	< 0.244	31	< 0.244	0.0094
O.O.O.O.O.O.O.O=[As]([O-])([O-])O.[Na+].[Na+] [Sodium arsenate dibasic heptahydrate]	> 500	> 500	< 0.244	< 0.244	< 0.244	< 0.244	< 0.244	< 0.244	5.13	< 0.244	0.874
O=[Si](O)O [Sodium metasilicate]	< 0.244	< 0.244	< 0.244	< 0.244	< 0.244	< 0.244	< 0.244	< 0.244	< 0.244	< 0.244	< 0.244
O=S([O-])[O-].[Na+].[Na+] [sodium sulfite]	> 500	2	0.261	0.391	0.45	< 0.244	7.58	1.7	1.12	< 0.244	31.7
